Test results: ChEMBL document CHEMBL5375955, “Discovery of New Fusobacterium nucleatum Inhibitors to Attenuate Migratory Capability of Colon Cancer Cells by the Drug Repositioning Strategy” (J Med Chem, 2023)
Converted amounts (≈) assume the structure as drawn. The source made the active and inactive calls. The rule behind the calls is not given here.

test system: Fusobacterium nucleatum; test: Antibacterial activity against Fusobacterium nucleatum ATCC 23726 assessed as bacterial growth inhibition incubated for 48 hrs by broth dilution susceptibility test; format: functional; settings: not given

Row | Structure (SMILES) | MIC50 [µg/mL]
1 | Cn1c([N+](=O)[O-])cnc1COC(N)=O [RONIDAZOLE] | 2 (≈ 9.99 µM)
2 | Cc1cc(=O)oc2ccc(OC(=O)c3ccc([N+](=O)[O-])c(F)c3)cc12 | > 64
3 | O=C(NCc1ccncc1)c1ccc(C(F)(F)F)cc1[N+](=O)[O-] | 64 (≈ 197 µM)
4 | Cl.Cl.Cl.O[C@@H](COc1cccc2ncccc12)CN1CCN([C@@H]2c3ccccc3[C@@H]3[C@H](c4ccccc42)C3(F)F)CC1 [ZOSUQUIDAR TRIHYDROCHLORIDE] | 16
5 | O=C(OCc1ccc([N+](=O)[O-])o1)c1ccc([N+](=O)[O-])c(Br)c1 | 4 (≈ 10.8 µM)
6 | O=[N+]([O-])c1ccc(COc2ccc(C(F)(F)F)cc2[N+](=O)[O-])o1 | 4 (≈ 12 µM)
7 | CSc1ccc(OCc2ncc([N+](=O)[O-])n2C)cc1 [FEXINIDAZOLE] | 8 (≈ 28.6 µM)
8 | O=C1CCCC(=O)C1C(=O)c1ccc(C(F)(F)F)cc1[N+](=O)[O-] [NITISINONE] | 8 (≈ 24.3 µM)

test system: MC-38; test: Antiproliferative activity against mouse MC-38 cells assessed as inhibition of cell growth incubated for 48 hrs by CCK-8 assay; format: functional, cell-based; settings: MC-38, 48 h

Row | Structure (SMILES) | IC50 [µM]
9 | O=C(OCc1ccc([N+](=O)[O-])o1)c1ccc([N+](=O)[O-])c(Br)c1 | 42
10 | O=C1CCCC(=O)C1C(=O)c1ccc(C(F)(F)F)cc1[N+](=O)[O-] [NITISINONE] | 96

test system: HCT-116; test: Antiproliferative activity against human HCT-116 cells assessed as inhibition of cell growth incubated for 48 hrs by CCK-8 assay; format: functional, cell-based; settings: HCT-116, 48 h

Row | Structure (SMILES) | IC50 [µM]
11 | O=C(OCc1ccc([N+](=O)[O-])o1)c1ccc([N+](=O)[O-])c(Br)c1 | 66
12 | O=C1CCCC(=O)C1C(=O)c1ccc(C(F)(F)F)cc1[N+](=O)[O-] [NITISINONE] | 108

test system: not listed separately; test: Cytotoxicity against HUVEC cells assessed as inhibition of cell growth incubated for 48 hrs by CCK-8 assay; format: toxicity, cell-based; settings: human

Row | Structure (SMILES) | IC50 at 48 h [µM]
13 | O=C(OCc1ccc([N+](=O)[O-])o1)c1ccc([N+](=O)[O-])c(Br)c1 | 31
14 | O=C1CCCC(=O)C1C(=O)c1ccc(C(F)(F)F)cc1[N+](=O)[O-] [NITISINONE] | 338

test system: not listed separately; test: Cytotoxicity against human L02 cells assessed as inhibition of cell growth incubated for 48 hrs by CCK-8 assay; format: toxicity, cell-based; settings: not given

Row | Structure (SMILES) | IC50 at 48 h [µM]
15 | O=C(OCc1ccc([N+](=O)[O-])o1)c1ccc([N+](=O)[O-])c(Br)c1 | 175
16 | O=C1CCCC(=O)C1C(=O)c1ccc(C(F)(F)F)cc1[N+](=O)[O-] [NITISINONE] | 104

test system: Fusobacterium nucleatum; test: Antibacterial activity against Fusobacterium nucleatum ATCC 23726 assessed as bacterial growth inhibition at 8 ug/ml incubated for 72 hrs by turbidimeter analysis; format: functional, organism-based; settings: dose 8.0 µg/ml

Row | Structure (SMILES) | Activity
17 | O=C(OCc1ccc([N+](=O)[O-])o1)c1ccc([N+](=O)[O-])c(Br)c1 | Active

test system: Fusobacterium nucleatum; test: Antibacterial activity against Fusobacterium nucleatum ATCC 23726 assessed as bacterial growth inhibition incubated for 72 hrs by turbidimeter analysis; format: functional, organism-based; settings: not given

Row | Structure (SMILES) | Activity
18 | O=C(OCc1ccc([N+](=O)[O-])o1)c1ccc([N+](=O)[O-])c(Br)c1 | Dose-Dependent Effect

test system: Fusobacterium nucleatum; test: Antibiofilm activity against Fusobacterium nucleatum ATCC 23726 assessed as inhibition of biofilm formation incubated for 48 hrs by crystal violet staining based assay; format: functional, organism-based; settings: dose 0.5-16 µg/ml

Row | Structure (SMILES) | inhibition
19 | O=C1CCCC(=O)C1C(=O)c1ccc(C(F)(F)F)cc1[N+](=O)[O-] [NITISINONE] | Dose-Dependent Effect

test system: Escherichia coli; test: Antibacterial activity against Escherichia coli […] assessed as bacterial growth inhibition incubated for 48 hrs by broth dilution susceptibility test; format: functional; settings: not given

Row | Structure (SMILES) | MIC50 [µg/mL]
20 | O=C(OCc1ccc([N+](=O)[O-])o1)c1ccc([N+](=O)[O-])c(Br)c1 | > 64
21 | O=C1CCCC(=O)C1C(=O)c1ccc(C(F)(F)F)cc1[N+](=O)[O-] [NITISINONE] | > 64

test system: Enterococcus faecalis; test: Antibacterial activity against Enterococcus faecalis ATCC 29212 assessed as bacterial growth inhibition incubated for 48 hrs by broth dilution susceptibility test; format: functional; settings: not given

Row | Structure (SMILES) | MIC50 [µg/mL]
22 | O=C(OCc1ccc([N+](=O)[O-])o1)c1ccc([N+](=O)[O-])c(Br)c1 | > 64
23 | O=C1CCCC(=O)C1C(=O)c1ccc(C(F)(F)F)cc1[N+](=O)[O-] [NITISINONE] | > 64

test system: Staphylococcus aureus; test: Antibacterial activity against Staphylococcus aureus ATCC 6538 assessed as bacterial growth inhibition incubated for 48 hrs by broth dilution susceptibility test; format: functional; settings: not given

Row | Structure (SMILES) | MIC50 [µg/mL]
24 | O=C(OCc1ccc([N+](=O)[O-])o1)c1ccc([N+](=O)[O-])c(Br)c1 | > 64
25 | O=C1CCCC(=O)C1C(=O)c1ccc(C(F)(F)F)cc1[N+](=O)[O-] [NITISINONE] | > 64

test system: Peptostreptococcus anaerobius; test: Antibacterial activity against Peptostreptococcus anaerobius ATCC 27337 assessed as bacterial growth inhibition incubated for 48 hrs by broth dilution susceptibility test; format: functional; settings: not given

Row | Structure (SMILES) | MIC50 [µg/mL]
26 | O=C(OCc1ccc([N+](=O)[O-])o1)c1ccc([N+](=O)[O-])c(Br)c1 | > 64
27 | O=C1CCCC(=O)C1C(=O)c1ccc(C(F)(F)F)cc1[N+](=O)[O-] [NITISINONE] | > 64

test system: Akkermansia muciniphila; test: Antibacterial activity against Akkermansia muciniphila ATCC BAA-835 assessed as bacterial growth inhibition incubated for 48 hrs by broth dilution susceptibility test; format: functional; settings: not given

Row | Structure (SMILES) | MIC50 [µg/mL]
28 | O=C(OCc1ccc([N+](=O)[O-])o1)c1ccc([N+](=O)[O-])c(Br)c1 | > 64
29 | O=C1CCCC(=O)C1C(=O)c1ccc(C(F)(F)F)cc1[N+](=O)[O-] [NITISINONE] | > 64

test system: Salmonella enterica subsp. enterica serovar Paratyphi B; test: Antibacterial activity against Salmonella paratyphi B ATCC CMCC50094 assessed as bacterial growth inhibition incubated for 48 hrs by broth dilution susceptibility test; format: functional; settings: not given

Row | Structure (SMILES) | MIC50 [µg/mL]
30 | O=C(OCc1ccc([N+](=O)[O-])o1)c1ccc([N+](=O)[O-])c(Br)c1 | 64 (≈ 172 µM)
31 | O=C1CCCC(=O)C1C(=O)c1ccc(C(F)(F)F)cc1[N+](=O)[O-] [NITISINONE] | > 64

test system: Shigella flexneri; test: Antibacterial activity against Shigella flexneri ATCC 12022 assessed as bacterial growth inhibition incubated for 48 hrs by broth dilution susceptibility test; format: functional; settings: not given

Row | Structure (SMILES) | MIC50 [µg/mL]
32 | O=C(OCc1ccc([N+](=O)[O-])o1)c1ccc([N+](=O)[O-])c(Br)c1 | > 64
33 | O=C1CCCC(=O)C1C(=O)c1ccc(C(F)(F)F)cc1[N+](=O)[O-] [NITISINONE] | > 64

test system: Lactobacillus acidophilus; test: Antibacterial activity against Lactobacillus acidophilus ATCC CGMCC 1.577 assessed as bacterial growth inhibition incubated for 48 hrs by broth dilution susceptibility test; format: functional; settings: not given

Row | Structure (SMILES) | MIC50 [µg/mL]
34 | O=C(OCc1ccc([N+](=O)[O-])o1)c1ccc([N+](=O)[O-])c(Br)c1 | 64 (≈ 172 µM)
35 | O=C1CCCC(=O)C1C(=O)c1ccc(C(F)(F)F)cc1[N+](=O)[O-] [NITISINONE] | 64 (≈ 194 µM)

test system: Fusobacterium nucleatum; test: Inhibition of Fusobacterium nucleatum ATCC 23726 stimulated mouse MC-38 cell migration assessed as reduction in number of migrating cells at 16 to 32 ug/ml incubated for 48 hrs by crystal violet staining based transwell assay; format: functional; settings: dose 16-32 µg/ml

Row | Structure (SMILES) | inhibition
36 | O=C1CCCC(=O)C1C(=O)c1ccc(C(F)(F)F)cc1[N+](=O)[O-] [NITISINONE] | Active

test system: Fusobacterium nucleatum; test: Antibacterial activity against Fusobacterium nucleatum ATCC 23726 assessed as downregulation of NTR gene expression incubated for 48 hrs by RT-qPCR analysis; format: functional, organism-based; settings: not given

Row | Structure (SMILES) | Activity
37 | O=C1CCCC(=O)C1C(=O)c1ccc(C(F)(F)F)cc1[N+](=O)[O-] [NITISINONE] | Dose-Dependent Effect

test system: Fusobacterium nucleatum; test: Antibiofilm activity against Fusobacterium nucleatum ATCC 23726 assessed as downregulation of tnaA gene expression measured after 48 hrs by RT-qPCR analysis; format: functional, organism-based; settings: not given

Row | Structure (SMILES) | Activity
38 | O=C1CCCC(=O)C1C(=O)c1ccc(C(F)(F)F)cc1[N+](=O)[O-] [NITISINONE] | Dose-Dependent Effect

test system: L02; test: Downregulation of HPPD gene expression in human L02 cells at 10 to 50 uM incubated for 48 hrs by RT-qPCR analysis; format: functional, cell-based; settings: dose 10-50 µM

Row | Structure (SMILES) | Activity
39 | O=C1CCCC(=O)C1C(=O)c1ccc(C(F)(F)F)cc1[N+](=O)[O-] [NITISINONE] | Active

test system: not listed separately; test: Acute toxicity in ICR mouse assessed as death rate at 2160 mg/kg, po measured after 7 days; format: organism-based; settings: in vivo, time 7 day, read-out: Activity

Row | Structure (SMILES) | mortality at 168 h [%]
40 | O=C1CCCC(=O)C1C(=O)c1ccc(C(F)(F)F)cc1[N+](=O)[O-] [NITISINONE] | 100

test system: not listed separately; test: Acute toxicity in ICR mouse assessed as death rate at 2592 mg/kg, po measured after 7 days; format: organism-based; settings: in vivo, time 7 day, read-out: Activity

Row | Structure (SMILES) | mortality at 168 h [%]
41 | O=C1CCCC(=O)C1C(=O)c1ccc(C(F)(F)F)cc1[N+](=O)[O-] [NITISINONE] | 90

test system: not listed separately; test: Acute toxicity in po dosed ICR mouse assessed as animal death measured after 7 days; format: organism-based; settings: in vivo, time 7 day

Row | Structure (SMILES) | LD50 at 168 h [mg/kg]
42 | O=C1CCCC(=O)C1C(=O)c1ccc(C(F)(F)F)cc1[N+](=O)[O-] [NITISINONE] | 1610

test system: not listed separately; test: Acute toxicity in po dosed ICR mouse assessed as lung damage by measuring thickening of alveolar walls at 1500 mg/kg, po measured after 7 days by H and E staining based analysis; format: organism-based; settings: in vivo, 168 h, time 7 day

Row | Structure (SMILES) | Activity
43 | O=C1CCCC(=O)C1C(=O)c1ccc(C(F)(F)F)cc1[N+](=O)[O-] [NITISINONE] | Toxic

test system: not listed separately; test: Acute toxicity in po dosed ICR mouse assessed as kidney damage by measuring atrophy of glomerulus at 1500 mg/kg, po measured after 7 days by H and E staining based analysis; format: organism-based; settings: in vivo, 168 h, time 7 day

Row | Structure (SMILES) | Activity
44 | O=C1CCCC(=O)C1C(=O)c1ccc(C(F)(F)F)cc1[N+](=O)[O-] [NITISINONE] | Toxic
